According to US8835440B2, “Cyclic pyrimidin-4-carboxamides as CCR2 receptor antagonists for treatment of inflammation, asthma and COPD” (Boehringer Ingelheim International GmbH, priority 2008, dated 2014):

Target: T1, CCR2 (Homo sapiens, UniProt P41597)
T1 construct: Membranes were prepared from THP-1 cells; endogenous in cells; host or cells: THP-1 cells (membrane preparation)
T1 sequence (P41597 1-360 isoform P41597-2): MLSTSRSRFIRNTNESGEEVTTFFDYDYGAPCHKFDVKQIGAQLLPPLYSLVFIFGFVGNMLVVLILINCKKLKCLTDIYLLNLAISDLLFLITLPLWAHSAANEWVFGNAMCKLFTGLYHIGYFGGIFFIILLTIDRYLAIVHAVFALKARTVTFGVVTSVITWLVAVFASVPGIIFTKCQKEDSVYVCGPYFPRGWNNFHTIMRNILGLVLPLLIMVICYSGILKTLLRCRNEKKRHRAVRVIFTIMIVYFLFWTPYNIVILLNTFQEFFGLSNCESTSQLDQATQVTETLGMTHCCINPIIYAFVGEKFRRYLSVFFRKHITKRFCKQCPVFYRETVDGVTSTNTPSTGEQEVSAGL
Assay: CCR2 receptor membrane binding assay ([125I]MCP-1, THP-1 cell membranes, SPA beads)
Conditions: dissociation constant hKi; [125I]MCP-1 binding to THP-1 membranes
In short: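 Human THP-1 monocytic cell membranes, pre-coupled to WGA-PVT SPA beads, were incubated with compound and [125I]MCP-1 (ca. 25000 cpm) in 25 mM HEPES pH 7.2, 5 mM MgCl2, 0.5 mM CaCl2, 0.2% BSA, at 1% DMSO final. Bound radioactivity was counted after 8 h, and Ki was obtained by iterative mass-action fitting.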

| SMILES | Ki |
| --- | --- |
| Cc1c(NCC2CCC(C(C)C)CC2)ncnc1C(=O)N1CCC(N2CCC(N(C)S(C)(=O)=O)CC2)CC1 (centres unmarked) [Example 159f] | 14 nM |
| Cc1c(NCC2CCCCCC2)ncnc1C(=O)N1CCC(N2CCC(N(C)S(C)(=O)=O)CC2)CC1 [Example 159fa] | 35 nM |
| Cc1c(NCC2COC(c3ccccc3)C2)ncnc1C(=O)N1CCC(N2CCC(N(C)S(C)(=O)=O)CC2)CC1 (centres unmarked) [Example 159fb] | 199 nM |
| COC1COCCC1NC1CCN(C(=O)c2ncnc(NCC3Cc4ccccc4C3)c2C)CC1 (centres unmarked) [Example 159fc] | 13 nM |
| Cc1c(NCC2CCCC(C)C2)ncnc1C(=O)N1CCC(N2CCC(N(C)S(C)(=O)=O)CC2)CC1 (centres unmarked) [Example 159g] | 15 nM |
| Cc1nc(NC[C@H]2CC[C@H](c3cccc(C(F)(F)F)c3)O2)c(C)c(C(=O)N2CCC(N3CCC(N(C)S(C)(=O)=O)CC3)CC2)n1 [Example 159ga] | 28 nM |
| Cc1ccc([C@H]2CC[C@H](CNc3ncnc(C(=O)N4CCC(N5CCC(N(C)S(C)(=O)=O)CC5)CC4)c3C)O2)cc1 [Example 159gb] | 39 nM |
| Cc1c(NCC2CCc3ccccc3N2)ncnc1C(=O)N1CCC(N2CCC(N(C)S(C)(=O)=O)CC2)CC1 (centres unmarked) [Example 159gc] | 26 nM |
| Cc1c(NCC2CCCC(C)(C)C2)ncnc1C(=O)N1CCC(N2CCC(N(C)S(C)(=O)=O)CC2)CC1 (centres unmarked) [Example 159h] | 39 nM |
| Cc1c(NC[C@H]2CC[C@H](c3cccc(C(F)(F)F)c3)O2)ncnc1C(=O)N1CCC(N2CCC(N(C)S(C)(=O)=O)CC2)CC1 [Example 159ha] | 27 nM |
| Cc1c(NCC2CCC(c3ccc(C(F)(F)F)cc3)O2)ncnc1C(=O)N1CCC(N2CCC(N(C)S(C)(=O)=O)CC2)CC1 (centres unmarked) [Example 159hb] | 20 nM |
| CNC(=O)C1CCN(C2CCN(C(=O)c3ncnc(NCC4CCCC(c5ccccc5)C4)c3C)CC2)CC1 (centres unmarked) [Example 159i] | 24 nM |
| Cc1cccc([C@H]2CC[C@H](CNc3ncnc(C(=O)N4CCC(N5CCC(N(C)S(C)(=O)=O)CC5)CC4)c3C)O2)c1 [Example 159ia] | 17 nM |
| Cc1nc(NCC2CCC(c3ccc(C(F)(F)F)cc3)O2)c(C)c(C(=O)N2CCC(N3CCC(N(C)S(C)(=O)=O)CC3)CC2)n1 (centres unmarked) [Example 159ib] | 15 nM |
| Cc1cccc([C@H]2CC[C@H](CNc3nc(C)nc(C(=O)N4CCC(N5CCC(N(C)S(C)(=O)=O)CC5)CC4)c3C)O2)c1 [Example 159ja] | 18 nM |
| Cc1ccc([C@H]2CC[C@@H](CNc3ncnc(C(=O)N4CCC(N5CCC(N(C)S(C)(=O)=O)CC5)CC4)c3C)O2)cc1 [Example 159jb] | 39 nM |
| CCC1CCC(CNc2ncnc(C(=O)N3CCC(N4CCC(N(C)S(C)(=O)=O)CC4)CC3)c2C)CC1 (centres unmarked) [Example 159k] | 22 nM |
| Cc1nc(NC[C@@H]2CC[C@H](c3ccc(C(F)(F)F)cc3)O2)c(C)c(C(=O)N2CCC(N3CCC(N(C)S(C)(=O)=O)CC3)CC2)n1 [Example 159ka] | 19 nM |
| COC1CCN(C2CCN(C(=O)c3ncnc(NCC4CCCC(c5ccc(F)cc5)C4)c3C)CC2)CC1 (centres unmarked) [Example 159kb] | 24 nM |
| Cc1c(NCC2CCC(C)CC2)ncnc1C(=O)N1CCC(N2CCC(N(C)S(C)(=O)=O)CC2)CC1 (centres unmarked) [Example 159l] | 22 nM |

| SMILES | Ki |
| --- | --- |
| Cc1c(NC[C@@H]2CC[C@H](c3ccc(C(F)(F)F)cc3)O2)ncnc1C(=O)N1CCC(N2CCC(N(C)S(C)(=O)=O)CC2)CC1 [Example 159la] | 19 nM |
| COC1CCN(C2CCN(C(=O)c3ncnc(NCC4CCCC(c5ccc(Cl)cc5)C4)c3C)CC2)CC1 (centres unmarked) [Example 159lb] | 12 nM |
| Cc1c(NC[C@@H]2CC[C@@H](c3ccc(C(F)(F)F)cc3)O2)ncnc1C(=O)N1CCC(N2CCC(N(C)S(C)(=O)=O)CC2)CC1 [Example 159ma] | 20 nM |
| Cc1c(NCc2coc(-c3ccccc3)c2)ncnc1C(=O)N1CCC(N2CCC(N(C)S(C)(=O)=O)CC2)CC1 [Example 159mb] | 14 nM |
| Cc1c(NCC2CCCC(c3ccccn3)C2)ncnc1C(=O)N1CCC(N2CCC(N(C)S(C)(=O)=O)CC2)CC1 (centres unmarked) [Example 159n] | 233 nM |
| Cc1ccc(C2CCC(CNc3ncnc(C(=O)N4CCC(N5CCC(N(C)S(C)(=O)=O)CC5)CC4)c3C)O2)cc1F (centres unmarked) [Example 159na] | 21 nM |
| Cc1c(NCC2Cc3ccccc32)ncnc1C(=O)N1CCC(N2CCC(N(C)S(C)(=O)=O)CC2)CC1 (centres unmarked) [Example 159nb] | 88 nM |
| Cc1c(NCC2CCC(C(C)(C)C)CC2)ncnc1C(=O)N1CCC(N2CCC(N(C)S(C)(=O)=O)CC2)CC1 (centres unmarked) [Example 159o] | 12 nM |
| Cc1ccc(C2CCC(CNc3nc(C)nc(C(=O)N4CCC(N5CCC(N(C)S(C)(=O)=O)CC5)CC4)c3C)O2)cc1 (centres unmarked) [Example 159oa] | 29 nM |
| Cc1c(NCC2CCc3ccccc3O2)ncnc1C(=O)N1CCC(N2CCC(N(C)S(C)(=O)=O)CC2)CC1 (centres unmarked) [Example 159ob] | 118 nM |
| CNC(=O)C1CCN(C2CCN(C(=O)c3ncnc(NC[C@H]4CCC[C@@H](c5ccccc5)C4)c3C)CC2)CC1 [Example 159p] | 7 nM |
| Cc1c(NCC2CCC(c3cccc(C(F)(F)F)c3)O2)ncnc1C(=O)N1CCC(N2CCC(N(C)S(C)(=O)=O)CC2)CC1 (centres unmarked) [Example 159pa] | 32 nM |
| Cc1c(NCC2CCc3ccccc3C2)ncnc1C(=O)N1CCC(N2CCC(N(C)S(C)(=O)=O)CC2)CC1 (centres unmarked) [Example 159pb] | 10 nM |
| Cc1c(NCC2CCC(c3ccc(F)cc3)C2)ncnc1C(=O)N1CCC(N2CCC(N(C)S(C)(=O)=O)CC2)CC1 (centres unmarked) [Example 159q] | 10 nM |
| Cc1nc(NCC2CCC(c3cccc(C(F)(F)F)c3)O2)c(C)c(C(=O)N2CCC(N3CCC(N(C)S(C)(=O)=O)CC3)CC2)n1 (centres unmarked) [Example 159qa] | 19 nM |
| Cc1c(NCC2Cc3ccccc3O2)ncnc1C(=O)N1CCC(N2CCC(N(C)S(C)(=O)=O)CC2)CC1 (centres unmarked) [Example 159qb] | 69 nM |
| Cc1c(NCC2CCC(c3nc4ccccc4[nH]3)CC2)ncnc1C(=O)N1CCC(N2CCC(N(C)S(C)(=O)=O)CC2)CC1 (centres unmarked) [Example 159r] | 2580 nM |
| Cc1cccc(C2CCC(CNc3ncnc(C(=O)N4CCC(N5CCC(N(C)S(C)(=O)=O)CC5)CC4)c3C)O2)c1 (centres unmarked) [Example 159ra] | 22 nM |
| Cc1c(NCC2Cc3cc(Cl)ccc3O2)ncnc1C(=O)N1CCC(N2CCC(N(C)S(C)(=O)=O)CC2)CC1 (centres unmarked) [Example 159rb] | 54 nM |
| Cc1c(NCC2CN(c3ccccc3)CCO2)ncnc1C(=O)N1CCC(N2CCC(N(C)S(C)(=O)=O)CC2)CC1 (centres unmarked) [Example 159s] | 1310 nM |

| SMILES | Ki |
| --- | --- |
| Cc1cccc(C2CCC(CNc3nc(C)nc(C(=O)N4CCC(N5CCC(N(C)S(C)(=O)=O)CC5)CC4)c3C)O2)c1 (centres unmarked) [Example 159sa] | 22 nM |
| Cc1c(NCC2COc3ccc(Cl)cc3C2)ncnc1C(=O)N1CCC(N2CCC(N(C)S(C)(=O)=O)CC2)CC1 (centres unmarked) [Example 159sb] | 21 nM |
| Cc1c(NCC2(c3ccccc3)CCCCC2)ncnc1C(=O)N1CCC(N2CCC(N(C)S(C)(=O)=O)CC2)CC1 [Example 159t] | 1200 nM |
| Cc1nc(NCC2CCC(c3ccc(C)c(F)c3)O2)c(C)c(C(=O)N2CCC(N3CCC(N(C)S(C)(=O)=O)CC3)CC2)n1 (centres unmarked) [Example 159ta] | 27 nM |
| Cc1c(NC[C@H]2C[C@H](c3ccc(Cl)cc3)C2)ncnc1C(=O)N1CCC(N2CCC(N(C)S(C)(=O)=O)CC2)CC1 [Example 159tb] | 13 nM |
| Cc1c(NCc2ccc(-c3ccccc3)o2)ncnc1C(=O)N1CCC(N2CCC(N(C)S(C)(=O)=O)CC2)CC1 [Example 159u] | 29 nM |
| Cc1nc(NC[C@H]2CC[C@H](c3ccc(Cl)cc3)O2)c(C)c(C(=O)N2CCC(N3CCC(N(C)S(C)(=O)=O)CC3)CC2)n1 [Example 159ua] | 23 nM |
| Cc1c(NC[C@H]2C[C@H](c3ccccc3)C2)ncnc1C(=O)N1CCC(N2CCC(N(C)S(C)(=O)=O)CC2)CC1 [Example 159ub] | 18 nM |
| Cc1c(NCC2CCCN(c3ccc(C(F)(F)F)cc3)C2)ncnc1C(=O)N1CCC(N2CCC(N(C)S(C)(=O)=O)CC2)CC1 (centres unmarked) [Example 159w] | 9 nM |
| Cc1c(NC[C@H]2CC[C@H](c3ccc(Cl)cc3)O2)ncnc1C(=O)N1CCC(N2CCC(N(C)S(C)(=O)=O)CC2)CC1 [Example 159wa] | 33 nM |
| Cc1c(NC[C@H]2C[C@@H](c3ccc(Cl)cc3)C2)ncnc1C(=O)N1CCC(N2CCC(N(C)S(C)(=O)=O)CC2)CC1 [Example 159wb] | 16 nM |
| Cc1c(NCC2CCc3ccccc32)ncnc1C(=O)N1CCC(N2CCC(N(C)S(C)(=O)=O)CC2)CC1 (centres unmarked) [Example 159x] | 147 nM |
| COc1ccc(C2CCCC(CNc3ncnc(C(=O)N4CCC(N5CCC(N(C)S(C)(=O)=O)CC5)CC4)c3C)C2)cc1 (centres unmarked) [Example 159xa] | 21 nM |
| Cc1ccc([C@H]2CCC[C@@H](CNc3ncnc(C(=O)N4CCC(N5CCC(N(C)S(C)(=O)=O)CC5)CC4)c3C)C2)o1 [Example 159xb] | 6 nM |
| Cc1c(NCCc2cn(C)c3ccccc23)ncnc1C(=O)N1CCC(N2CCC(N(C)S(C)(=O)=O)CC2)CC1 [Example 159y] | 169 nM |
| Cc1nc(NC[C@H]2CC[C@H](c3ccc(F)c(C)c3)O2)c(C)c(C(=O)N2CCC(N3CCC(N(C)S(C)(=O)=O)CC3)CC2)n1 [Example 159ya] | 18 nM |
| Cc1c(NC[C@H]2C[C@@H](c3ccccc3)C2)ncnc1C(=O)N1CCC(N2CCC(N(C)S(C)(=O)=O)CC2)CC1 [Example 159yb] | 15 nM |
| Cc1c(NCC2CCCC(c3ccc(F)cc3)C2)ncnc1C(=O)N1CCC(N2CCC(N(C)S(C)(=O)=O)CC2)CC1 (centres unmarked) [Example 159z] | 11 nM |
| Cc1ccc(C2CCCC(CNc3ncnc(C(=O)N4CCC(N5CCC(N(C)S(C)(=O)=O)CC5)CC4)c3C)C2)cc1 (centres unmarked) [Example 159za] | 6 nM |
